# In patent US20250388858A1, “COMPOSITION FOR EMBRYONIC DEVELOPMENT, COMPRISING RAD51 ACTIVATOR, AND METHOD FOR IMPROVING EMBRYONIC DEVELOPMENT RATE USING SAME” (CHA UNIVERSITY INDUSTRY-ACADEMIC COOPERATION FOUNDATION, priority 2018, published 2025):
# Assays:
# SCNT eggs (F/T SCNT) [1] = assay: Embryonic development of SCNT eggs cultured with RS-1 (somatic cell cloning efficiency); assay type: cell-based, mice; conditions: for Number of embryos at 2-cell stage (%)+: based on the number of reconstructed oocytes; for Number of embryos at 4-cell stage (%)# / Number of blastocysts (%)# / Number of embryos at 2-cell stage block (%)#: based on the number of embryos at 2-cell stage
# Procedure: 5IU PMSG and 5IU hCG hormone were administered into 8-week to 10-week-old female BDF/1 mice. 14 hr after hCG administration, cumulus cells were isolated from superovulated mice using hyaluronidase and eggs were collected. The isolated cumulus cells were refrigerated for use as somatic cell for donor cells, and the isolated eggs were stored in a KSOM culture medium in an incubator at 37° C. until experiments started. Thereafter, to carry out a somatic cell cloning experiment, nuclei were removed from matured eggs, and cumulus cells isolated in advance were directly injected as donor cells. The cumulus cells injected as donor cells were artificially activated in a culture medium containing a Rad51-stimulatory compound 1 (RS-1) for 6 hr. Thereafter, the cells were incubated in the culture medium containing RS-1 reagent for 22 hr. 22 hr later, the cells were incubated in a KSOM culture medium for 72 hr to 96 hr.
# First, to examine whether RS-1 induced toxicity to egg development, IVF eggs and SCNT eggs (F/T SCNT) of Example 1 were treated with 0 μM, 1 μM, 5 μM, and 10 μM of RS-1, respectively, and an appropriate concentration was selected.
# SCNT eggs (F/T SCNT) [2] = assay: LC3B (autophagy) and MitoTracker (mitochondria) staining of eggs; assay type: cell-based, mice; conditions: 2-cell stage; SCNT+RS-1 group; FIG. 3B
# Procedure: In detail, to evaluate mitochondria distribution, SCNT-derived somatic cell cloned eggs at the 1-cell stage, 2-cell stage, and 4-cell stage were stained using MitoTracker Orange CMTMRos (Molecular Probes). Mitotracker was used at a concentration of 300 nM in an M16 culture medium supplemented with 0.3% BSA at 37° C. for 30 min in the dark. After washing, the oocytes were fixed and immunofluorescently stained with LC3B antibody and then nuclei were stained with DAPI.
# SCNT eggs (F/T SCNT) [3] = assay: CellROX reactive oxygen species staining of eggs at the 2-cell stage; assay type: cell-based, mice; conditions: SCNT+RS-1 group, FIG. 5A
# Procedure: In detail, IVF group, SCNT+RS-1 group, and SCNT group at the 2-cell stage were incubated at 37° C. for 30 min in the dark in a culture medium supplemented with 5 μM of CellROX oxidative stress reagent for 30 min. Thereafter, each group was washed with 0.1% PVA-added D-PBS, and nuclei were stained with Hoechst (Sigma).
# SCNT eggs (F/T SCNT) [4] = assay: Immunostaining of DNA damage biomarker rH2AX and Rad51; assay type: cell-based, mice
# Procedure: In detail, IVF group, SCNT group, and SCNT+RS-1 group fixed in 4% paraformaldehyde were arrested at the 1-cell stage, 2-cell stage, and 4-cell stage, and then incubated with rH2AX (Abcam, ab22551) Rad51 (Abcam, ab63801) for 2 hr, followed by incubation in the presence of goat anti-mouse antibody diluted with PBS/0.1% BSA at 1:200, and goat anti-rabbit antibody at the same concentration for 1 hr. Thereafter, nuclei were stained with DAPI.
# SCNT eggs (F/T SCNT) [5] = assay: Comet assay for DNA breaks; assay type: cell-based, mice; conditions: SCNT+RS-1 group vs SCNT group; FIG. 6
# Procedure: In detail, to examine DNA damage, each sample in a 1 ml tube from which a culture medium was removed was suspended in 1% agarose at 37° C., and then fixed on a pre-coated slide (Trevigen). The slide was incubated at 4° C. for 4 hr, and then immersed in a solution (Trevigen) at 4° C. for 4 hr. The slide was removed from the lysis solution, and immersed in a 1×TAE buffer at 4° C. for 30 min, followed by electrophoresis for 30 min to 40 min. The slide was immersed in 1 M ammonium acetate at room temperature for 30 min, and then fixed at […] After fixing at room temperature for 30 min, incubation was performed at 42° C. for 20 min until agarose was completely dried. Thereafter, staining was performed using a 1×SYBR green I staining solution for 5 min.
# SCNT eggs = assay: RNA sequencing of cloned eggs at the 2-cell stage; assay type: cell-based, mouse; conditions: SCNT+RS-1 group
# Procedure: To examine the effect of RS-1 treatment on SCNT eggs, RS-1 was treated to cloned eggs at the 2-cell stage during the somatic cell cloning procedure of Example 1, followed by RNA sequencing. At this time, IVF eggs were used as a negative control group. In detail, complementary DNA (cDNA) was amplified using a SMARTer ultra-low input RNA Kit for cDNA preparation (Takara, 634890) according to the manufacturer's instructions. cDNA was fragmented into about 200 bp fragments using a M220 sonicator (Covaris). The fragmented cDNAs were subjected to end-repair, and an adapter was ligated thereto. Sequencing libraries were prepared using a ScriptSeq v2 kit (Illumina) according to the manufacturer's instructions. Single-end sequencing was performed in HiSeq2500 (Illumina), and mapped to the mm9 mouse genome using STAR (v2.5.2b, https://github.com/alexdobin/STAR). Subsequently, […] (FPKM) was calculated by cuff link (v2.2.1) with default options.
# To examine cloning mechanisms in the RS-1-treated SCNT egg (SCNT+RS-1) of Example 3 and the cloned egg (SCNT+Kdm4a) injected with Kdm4a mRNA during SCNT of Example 2, genes expressed in each egg were examined in the same manner as in Example 8.
# [6] = tested on: surrogate female ICR mice
# Source text: It is reported that a success rate of cloned mouse production is generally about 1% after normal somatic cell cloning. Therefore, implantation and cloned pups formation rates of mice were examined according to treatment of SCNT eggs with RS-1. In detail, SCNT and SCNT+RS-1 oocytes at the 2-cell stage were implanted into the uterus of surrogate female ICR mice at 0.5 days after pseudopregnancy. At 19.5 days after implantation, the somatic cell cloned mice were separated from the uterus of the surrogate mother, and then the cloned mice were nurtured together with normal ICR mice born on the same day by ICR mice smeared with the smell of the surrogate mother.
# blastocysts of SCNT eggs = assay: Embryonic stem cell establishment from SCNT blastocysts; assay type: cell-based, mouse; conditions: SCNT+RS-1 blastocysts on MEF feeder cells; non-RS-1 treated group 17%; FIG. 9B
# Procedure: In detail, blastocysts of each group was cultured on mouse embryonic fibroblast (MEF cells) feeder cells in a mouse embryonic stem cell culture medium. 20% KSR, 0.1 mM β-mercaptoethanol, 1% non-essential amino acids, 100 units/ml penicillin, 100 μg/ml streptomycin (all products available from GIBCO), 1.5×10^3 units/ml of recombination mLif (Chemicon) were used in the culture medium. Subculture was performed using Trypsin-EDTA, and the established embryonic stem cells of somatic cell cloned mice were treated with alkaline phosphatase. The established stem cells were evaluated by histochemical staining.
smiles,measurement,setting,value
"O=C(Nc1ccc(Br)cc1)c1ccc(Br)c(S(=O)(=O)NCc2ccccc2)c1 [RS-1, 3-[(benzylamino)sulfonyl]-4-bromo-N-(4-bromophenyl)benzamide]",Number of embryos at 2-cell stage (%)+,"SCNT eggs (F/T SCNT) [1]; RS-1 1 μM, 45 NT oocytes",42%
same,Number of embryos at 4-cell stage (%)#,SCNT eggs (F/T SCNT) [1]; RS-1 1 μM,35%
same,Number of blastocysts (%)#,SCNT eggs (F/T SCNT) [1]; RS-1 1 μM,8(19) %
same,Number of embryos at 2-cell stage block (%)#,SCNT eggs (F/T SCNT) [1]; RS-1 1 μM,7(16.7) %
same,Number of embryos at 2-cell stage (%)+,"SCNT eggs (F/T SCNT) [1]; RS-1 5 μM, 46 NT oocytes",43%
same,Number of embryos at 4-cell stage (%)#,SCNT eggs (F/T SCNT) [1]; RS-1 5 μM,36%
same,Number of blastocysts (%)#,SCNT eggs (F/T SCNT) [1]; RS-1 5 μM,18(41.9) %
same,Number of embryos at 2-cell stage block (%)#,SCNT eggs (F/T SCNT) [1]; RS-1 5 μM,7(16.3) %
same,Number of embryos at 2-cell stage (%)+,"SCNT eggs (F/T SCNT) [1]; RS-1 10 μM, 54 NT oocytes",50%
same,Number of embryos at 4-cell stage (%)#,SCNT eggs (F/T SCNT) [1]; RS-1 10 μM,47%
same,embryonic development rate,"SCNT eggs (F/T SCNT) [1]; RS-1 10 μM, control group 31%, Table 1",76%
same,Number of blastocysts (%)#,SCNT eggs (F/T SCNT) [1]; RS-1 10 μM,28(56) %
same,Number of embryos at 2-cell stage block (%)#,SCNT eggs (F/T SCNT) [1]; RS-1 10 μM,3(6) %
same,embryonic development rate,"SCNT eggs (F/T SCNT) [1]; treatment with RS-1 during SCNT, FIG. 3A, control group 17%",59%
same,number of embryos at the 2-cell stage block,"SCNT eggs (F/T SCNT) [1]; treatment with RS-1 during SCNT, FIG. 3A, control group 39%",5%
same,autophagy (LC3B) and mitochondria (mitotracker) expression pattern,SCNT eggs (F/T SCNT) [2],intensive autophagy and mitochondria expression in the nucleus
same,reactive oxygen species in the nuclei,SCNT eggs (F/T SCNT) [3],tended to increase
same,DNA damage (rH2AX and Rad51 expression),"SCNT eggs (F/T SCNT) [4]; 1-cell stage, SCNT+RS-1 group vs SCNT group",significant reduction in DNA damage
same,DNA damage (rH2AX and Rad51 expression),"SCNT eggs (F/T SCNT) [4]; 2-cell stage block, SCNT+RS-1 group compared with other groups",very strong DNA damage in the nucleus
same,"DNA breaks (length of 3'-end, comet assay)",SCNT eggs (F/T SCNT) [5],DNA breaks were decreased
same,generation of the abnormal 3'-end,SCNT eggs (F/T SCNT) [5],significantly reduced
same,number of genes significantly decreased,SCNT eggs,414 genes
same,number of genes significantly increased,SCNT eggs,190 genes
same,production rate of cloned mouse,"[6]; SCNT+RS-1 oocytes at the 2-cell stage implanted into surrogate ICR mice, generally about 1% after normal cloning, FIG. 9A",5%
same,toxicity during development,"[6]; mouse, in vivo",no toxicity problem
same,induction rate of embryonic stem cells,blastocysts of SCNT eggs,45%
